The subject of test [1] is monoclonal antibody MV-001. Kind of test: In vitro binding assay (ELISA), BSA-coupled peptides, parental antibody MV-001. Also noted: species or system C57/B16 mice. Conditions: Table 1C; peptide-BSA on plate, compared to original epitope. As to the method:
Peptides derived from Phage Display as well as variants thereof were coupled to BSA and bound to ELISA plates (1 μM; as indicated in the respective figures) and subsequently incubated with the monoclonal antibody that was used for the screening procedure to analyse binding capacity of identified peptides.
Legend to Table 1C: the binding capacity is coded by the following binding code: 1:X describes the dilution factor of the parental AB
On the technique in general: ELISA stands for enzyme-linked immunosorbent assay.

For test [2], the system named is monoclonal antibody (DAEFRH-peptide-specific). Kind of test: Inhibition assay (ELISA): mimotope peptides compete with plate-bound original epitope DAEFRH for recognition by the monoclonal antibody. Format: binding, Mice. As to conditions: for inhibition of binding of the monoclonal antibody to the original epitope: competition ELISA, plate-bound DAEFRH-C-BSA, text to FIGS. 2-9; for inhibition (s/m/—): peptide lists of Example 4; for Inhibitory capacity of mimotopes: summary Tables 1 and 2 (Examples 2, 3). Also noted: key to inhibition (s/m/—): s: strong inhibition; m: moderate inhibition; —: -: no inhibition.
Description: Mice are vaccinated with the 6mer peptide DAEFRH (natural N-terminal Aβ42 sequence) linked to the protein bovine serum albumin BSA (to make use of the hapten-carrier-effect), emulsified in CFA (first injection) and IFA (booster injections). DAEFRH-peptide-specific, antibody-producing hybridomas are detected by ELISA (DAEFRH-peptide-coated ELISA plates).
FIGS. 2 and 3 describe the results of inhibition assays performed with mimotope peptides included in and obtained from the 5 libraries (as described in WO 2004/062556). The mimotope peptides compete with the original epitope for recognition by the monoclonal antibody. Original epitope and mimotope peptides contain an additional C at the C-terminus for coupling to a protein carrier (if desired).
(§1) After blocking with PBS/BSA 1% (200 μl/well, 12 h, 4° C.), the plates are washed 3× times with PBS/Tween. Then, biotinylated monoclonal antibody (1:2000, 50 μl/well) and peptides (50 μl/well) at 50, 5, 0.5, 0.05, 0.005, and 0.0005 μg/ml are added for 20 min. at 37° C. The plates are washed 3× times with PBS/Tween and are incubated with horseradish peroxidase (HRP)-labeled streptavidin (100 μl/well, 30 min, RT). The plates are washed 5× times with PBS/Tween and are incubated with ABTS+H2O2(0.1% w/v, 10 to 45 min) and the reaction is stopped with citric acid followed by photometric evaluation (wavelength 405 nm).
as §1, with “different concentrations” for “50, 5, 0.5, 0.05, 0.005, and 0.0005 μg/ml”, “ABTS+H2O2 (0.1%” for “ABTS+H2O2(0.1%”
as §1, with “different concentrations” for “50, 5, 0.5, 0.05, 0.005, and 0.0005 μg/ml”

Entries after “also recorded” stand apart in the source; their conditions may differ. Square brackets hold non-standard residues; d marks the D form. Ends that are not written are not given here. Tle = CC(C)(C)[C@H](N)C(=O)O

Consider TPLMFWHC [p4733], for which the “Binding Capacity” value in test [1] is 1 (weak binding :<4000).

As for APIQFRHC [p4750], the “Binding Capacity” value in test [1] is 3 (strong binding :>20000).

Regarding APMYFPHC [p4717], the “Binding Capacity” value in test [1] is on record as 2 (medium binding :4000-20000).

With LQFKHSTC [p4734], the “Binding Capacity” value in test [1] is 2 (medium binding :4000-20000).

On to THMEFRRC [p4745], for which the “Binding Capacity” value in test [1] is on record as 3 (strong binding :>20000).

Consider DNEFRSP [Peptide 4012], for which, in test [2], the “inhibition of binding of the monoclonal antibody to the original epitope” value (“inhibition of binding … to the original epitope” below) is “moderately inhibit” and the “inhibition (s/m/—)” value was “s”.

Consider HEPLFSHC [p4719], for which, in test [1], the “Binding Capacity” value was 1 (weak binding :<4000).

Consider SAMRHSLC [p4732], for which the “Binding Capacity” value in test [1] is recorded as 2 (medium binding :4000-20000).

Turning to SNSEFRRC [p4743], in test [1], the “Binding Capacity” value is given as 3 (strong binding :>20000).

Take SAGSFRHC [p4710]: in test [1], the “Binding Capacity” value is given as 3 (strong binding :>20000).

In the case of IGFRHDSC [p4742], the “Binding Capacity” value in test [1] was 2 (medium binding :4000-20000).

As to WHWSWR (WHWSWRC) [Peptide 4004], in test [2], the “inhibition of binding … to the original epitope” value is on record as “not able to inhibit” and the “Inhibitory capacity of mimotopes” value is on record as “none”.

Consider TYFSHSLC [p4718], for which, in test [1], the “Binding Capacity” value is reported as 2 (medium binding :4000-20000).

For the compound SAEFRAT [Peptide 4016], in test [2], the “inhibition of binding … to the original epitope” value is “strongly block epitope recognition” and the “inhibition (s/m/—)” value was “s”.

Consider QVMRHHAC [p4711], for which the “Binding Capacity” value in test [1] is 2 (medium binding :4000-20000).

For the compound TSTEMWHC [p4754], the “Binding Capacity” value in test [1] was 1 (weak binding :<4000).

For the compound DKE(tBuGly)R (DKE[Tle]R) [Peptide 4061], in test [2], the “inhibition of binding … to the original epitope” value is listed as “not inhibitory” and the “inhibition (s/m/—)” value is “—”.

DIGWRG (DIGWRGC) [Peptide 3011]: in test [2], the “inhibition of binding … to the original epitope” value was “not inhibitory” and the “Inhibitory capacity of mimotopes” value is “none”.

Consider GAEFRFT [Peptide 4014], for which, in test [2], the “inhibition of binding … to the original epitope” value is “moderately inhibit” and the “inhibition (s/m/—)” value is “m”.

With GEMRHQPC [p4702], the “Binding Capacity” value in test [1] is recorded as 3 (strong binding :>20000).

In the case of VPTSALA [Peptide 4037], in test [2], the “inhibition of binding … to the original epitope” value is recorded as “not inhibitory” and the “inhibition (s/m/—)” value is given as “—”.

As for ATFRHSTC [p4735], in test [1], the “Binding Capacity” value is 2 (medium binding :4000-20000).

Turning to QLFKHSPC [p4747], the “Binding Capacity” value in test [1] is listed as 3 (strong binding :>20000).

Regarding SWEFRNP [Peptide 4017], in test [2], the “inhibition of binding … to the original epitope” value is “strongly block epitope recognition” and the “inhibition (s/m/—)” value is “s”.

Consider NSSELRHC [p4752], for which the “Binding Capacity” value in test [1] is on record as 3 (strong binding :>20000).

As for QELKRYYC [p4724], in test [1], the “Binding Capacity” value is 1 (weak binding :<4000).

Take EDWFFWHC [p4709]: in test [1], the “Binding Capacity” value is listed as 1 (weak binding :<4000).

Turning to `CC[C@H](C)[C@H](NC(=O)[C@H](CCCCN)NC(=O)[C@H](CC(C)C)NC(=O)[C@H](CCC(=O)O)NC(=O)[C@H](CCCCN)NC(=O)[C@@H](N)CC(=O)O)C(=O)N[C@@H](CS)C(=O)O` [Peptide 1236, DKELKI], in test [2], the “inhibition of binding … to the original epitope” value is reported as “block epitope recognition” and the “Inhibitory capacity of mimotopes” value was “weak”.

On to AEFSHWHC [p4737], for which the “Binding Capacity” value in test [1] is given as 2 (medium binding :4000-20000).

Take YREFFI (YREFFIC) [Peptide 3003]: in test [2], the “inhibition of binding … to the original epitope” value was “not able to inhibit” and the “Inhibitory capacity of mimotopes” value is “none”.

With DTYFPRSC [p4703], the “Binding Capacity” value in test [1] is 2 (medium binding :4000-20000).

For the compound SNFRHSVC [p4749], in test [1], the “Binding Capacity” value is given as 3 (strong binding :>20000).

Regarding QPNLFYHC [p4713], the “Binding Capacity” value in test [1] is listed as 1 (weak binding :<4000).

As to `CC[C@H](C)[C@H](NC(=O)[C@H](CCCCN)NC(=O)[C@H](CC(C)C)NC(=O)[C@H](CCC(=O)O)NC(=O)[C@H](CCCNC(=N)N)NC(=O)[C@@H](N)CC(=O)O)C(=O)N[C@@H](CS)C(=O)O` [Peptide 1237, DRELKI], in test [2], the “inhibition of binding … to the original epitope” value was “block epitope recognition” and the “Inhibitory capacity of mimotopes” value is reported as “weak”.

On to YREFRI (YREFRIC) [Peptide 3004], for which, in test [2], the “inhibition of binding … to the original epitope” value is “block epitope recognition; also recorded: only inhibitory at a high concentration (50 μg/ml)” and the “Inhibitory capacity of mimotopes” value is given as “weak”.

Regarding DAEFRWP [Peptide 4011], in test [2], the “inhibition of binding … to the original epitope” value is given as “strongly block epitope recognition” and the “inhibition (s/m/—)” value was “s”.

On to `N=C(N)NCCC[C@H](NC(=O)[C@H](Cc1ccccc1)NC(=O)[C@H](CCC(=O)O)NC(=O)[C@H](Cc1ccccc1)NC(=O)[C@@H](N)CO)C(=O)NCC(=O)N[C@@H](CS)C(=O)O` [Peptide 3009, SFEFRG], for which the “Inhibitory capacity of mimotopes” value in test [2] is listed as “weak”.

As for SWEFRLY [Peptide 4018], in test [2], the “inhibition of binding … to the original epitope” value is recorded as “strongly block epitope recognition” and the “inhibition (s/m/—)” value is listed as “s”.

MLPFRHGC [p4731]: the “Binding Capacity” value in test [1] is given as 2 (medium binding :4000-20000).

For the compound GSEFRDY [Peptide 4013], in test [2], the “inhibition of binding … to the original epitope” value is recorded as “moderately inhibit” and the “inhibition (s/m/—)” value was “m”.

With TGLMFKHC [p4736], the “Binding Capacity” value in test [1] is 2 (medium binding :4000-20000).

With YSMRHDAC [p4705], the “Binding Capacity” value in test [1] was 2 (medium binding :4000-20000).

As for NELFKHFC [p4727], the “Binding Capacity” value in test [1] is listed as 2 (medium binding :4000-20000).

Turning to AANYFPRC [p4706], the “Binding Capacity” value in test [1] is on record as 2 (medium binding :4000-20000).

As to SELRHSTC [p4744], the “Binding Capacity” value in test [1] is recorded as 3 (strong binding :>20000).

For ATPLFRHC [p4723], the “Binding Capacity” value in test [1] is 3 (strong binding :>20000).

For AYFPHTSC [p4751], the “Binding Capacity” value in test [1] is recorded as 2 (medium binding :4000-20000).

As to SQYFPRPC [p4729], the “Binding Capacity” value in test [1] was 2 (medium binding :4000-20000).

Take SLMRHSSC [p4721]: the “Binding Capacity” value in test [1] is listed as 2 (medium binding :4000-20000).

Turning to ATFRHSPC [p4716], in test [1], the “Binding Capacity” value is 2 (medium binding :4000-20000).

In the case of VELRHSRC [p4704], the “Binding Capacity” value in test [1] was 2 (medium binding :4000-20000).

As to AEFMHSVC [p4739], in test [1], the “Binding Capacity” value is on record as 2 (medium binding :4000-20000).

Regarding LHIPFRHC [p4726], the “Binding Capacity” value in test [1] is 3 (strong binding :>20000).

In the case of NELRHSTC [p4701], the “Binding Capacity” value in test [1] is reported as 3 (strong binding :>20000).

Consider SSSFFPRC [p4708], for which the “Binding Capacity” value in test [1] was 2 (medium binding :4000-20000).

With EFLRHTLC [p4722], the “Binding Capacity” value in test [1] is given as 3 (strong binding :>20000).

Consider SEFSHSSC [p4712], for which the “Binding Capacity” value in test [1] is 3 (strong binding :>20000).

Regarding SQSYFKHC [p4755], the “Binding Capacity” value in test [1] was 3 (strong binding :>20000).

The record behind these values is US20130287807A1, “COMPOUNDS FOR TREATING SYMPTOMS ASSOCIATED WITH PARKINSON'S DISEASE” (priority 2008, published 2013).
